In brackets after ≈: the same amount, converted by molar mass.

As a reminder, the EC50 is the midpoint of the concentration-response curve.

The target of data set [1] is T1, Piezo-type mechanosensitive ion channel component 1 (Homo sapiens, UniProt Q92508). As to the kind of experiment: Agonist activity at human PIEZO1 overexpressing HEK293-A cells co-expressing mCherry-piezo1 assessed as fold change in calcium influx at 15 uM by fluo-3 based real-time flow cytometric analysis. The class given is cell-based. Background: A flow cytometer gives signals particle by particle.
T1 sequence (Q92508 whole entry): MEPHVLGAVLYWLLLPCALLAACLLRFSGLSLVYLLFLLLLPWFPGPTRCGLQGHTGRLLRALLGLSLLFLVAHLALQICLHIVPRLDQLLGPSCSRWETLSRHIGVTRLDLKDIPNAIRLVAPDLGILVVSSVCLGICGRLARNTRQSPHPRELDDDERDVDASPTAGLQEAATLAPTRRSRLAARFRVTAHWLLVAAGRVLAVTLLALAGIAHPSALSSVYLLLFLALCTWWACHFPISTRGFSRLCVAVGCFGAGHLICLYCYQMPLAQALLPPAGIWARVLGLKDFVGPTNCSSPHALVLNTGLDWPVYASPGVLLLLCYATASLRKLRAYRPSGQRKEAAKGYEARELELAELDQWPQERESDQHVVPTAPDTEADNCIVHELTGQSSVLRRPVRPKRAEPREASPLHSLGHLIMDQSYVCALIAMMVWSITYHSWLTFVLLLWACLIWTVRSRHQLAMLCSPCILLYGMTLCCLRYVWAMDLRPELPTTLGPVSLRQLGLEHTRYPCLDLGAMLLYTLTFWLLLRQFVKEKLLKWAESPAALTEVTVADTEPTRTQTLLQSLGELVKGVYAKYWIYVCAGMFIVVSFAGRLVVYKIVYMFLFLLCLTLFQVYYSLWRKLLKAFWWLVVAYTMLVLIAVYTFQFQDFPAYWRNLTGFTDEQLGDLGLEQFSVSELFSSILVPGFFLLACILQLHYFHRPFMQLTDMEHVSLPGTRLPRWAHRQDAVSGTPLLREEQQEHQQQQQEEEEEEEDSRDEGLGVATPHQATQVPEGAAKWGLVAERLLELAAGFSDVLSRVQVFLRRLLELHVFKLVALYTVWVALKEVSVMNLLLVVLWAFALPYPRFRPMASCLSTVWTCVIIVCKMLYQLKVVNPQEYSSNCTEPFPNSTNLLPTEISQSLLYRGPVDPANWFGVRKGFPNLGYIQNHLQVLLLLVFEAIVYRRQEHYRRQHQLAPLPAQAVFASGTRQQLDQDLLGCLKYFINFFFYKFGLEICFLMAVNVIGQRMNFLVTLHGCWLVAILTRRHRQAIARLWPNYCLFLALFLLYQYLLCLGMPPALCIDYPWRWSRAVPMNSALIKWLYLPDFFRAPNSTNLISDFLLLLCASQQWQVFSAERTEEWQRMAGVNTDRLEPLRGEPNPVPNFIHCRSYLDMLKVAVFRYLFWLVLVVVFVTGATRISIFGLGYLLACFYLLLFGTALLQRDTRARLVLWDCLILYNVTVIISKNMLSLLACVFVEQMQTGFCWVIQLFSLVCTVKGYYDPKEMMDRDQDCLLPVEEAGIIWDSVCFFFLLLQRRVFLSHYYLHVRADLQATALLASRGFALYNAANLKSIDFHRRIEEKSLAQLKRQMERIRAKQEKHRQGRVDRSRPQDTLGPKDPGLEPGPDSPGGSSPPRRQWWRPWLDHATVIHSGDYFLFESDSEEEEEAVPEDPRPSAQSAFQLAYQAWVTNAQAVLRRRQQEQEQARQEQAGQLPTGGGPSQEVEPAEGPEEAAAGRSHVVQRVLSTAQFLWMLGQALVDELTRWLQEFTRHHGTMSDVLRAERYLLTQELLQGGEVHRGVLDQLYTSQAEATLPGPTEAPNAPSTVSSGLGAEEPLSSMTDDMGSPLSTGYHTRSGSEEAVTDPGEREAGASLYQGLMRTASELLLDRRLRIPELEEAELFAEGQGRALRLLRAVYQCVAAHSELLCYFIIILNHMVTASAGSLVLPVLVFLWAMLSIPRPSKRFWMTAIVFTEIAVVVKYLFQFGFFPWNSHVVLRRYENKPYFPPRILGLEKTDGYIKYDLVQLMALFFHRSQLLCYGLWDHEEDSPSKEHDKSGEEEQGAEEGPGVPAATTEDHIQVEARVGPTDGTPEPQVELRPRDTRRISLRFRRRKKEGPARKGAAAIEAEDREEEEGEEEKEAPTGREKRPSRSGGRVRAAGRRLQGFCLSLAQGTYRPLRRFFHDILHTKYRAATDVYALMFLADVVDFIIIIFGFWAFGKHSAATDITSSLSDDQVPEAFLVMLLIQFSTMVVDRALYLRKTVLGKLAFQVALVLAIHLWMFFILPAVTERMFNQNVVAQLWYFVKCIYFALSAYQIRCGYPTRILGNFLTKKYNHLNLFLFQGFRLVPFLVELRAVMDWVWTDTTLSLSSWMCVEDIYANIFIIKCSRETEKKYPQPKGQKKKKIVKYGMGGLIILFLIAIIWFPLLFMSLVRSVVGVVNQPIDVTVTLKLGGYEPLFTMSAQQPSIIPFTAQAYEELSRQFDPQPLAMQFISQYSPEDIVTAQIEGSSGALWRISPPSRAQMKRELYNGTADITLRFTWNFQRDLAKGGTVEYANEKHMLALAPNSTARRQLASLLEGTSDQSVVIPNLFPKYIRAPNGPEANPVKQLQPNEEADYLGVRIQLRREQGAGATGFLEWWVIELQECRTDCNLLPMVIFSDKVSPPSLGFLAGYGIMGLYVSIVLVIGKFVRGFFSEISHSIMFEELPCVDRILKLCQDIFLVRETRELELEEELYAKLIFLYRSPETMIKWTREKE

Data set [2] addresses T1, Piezo-type mechanosensitive ion channel component 1. As to the kind of experiment: Agonist activity at human PIEZO1 overexpressing HEK293-A cells co-expressing mCherry-piezo1 assessed as fold change in calcium influx at 20 uM by fluo-3 based real-time flow cytometric analysis. Format: cell-based.
For data set [3] the target is unchanged. As to the kind of experiment: Agonist activity at human PIEZO1 overexpressing HEK293-A cells co-expressing mCherry-piezo1 assessed as fold change in calcium influx at 0.1 uM by fluo-3 based real-time flow cytometric analysis. The class given is cell-based.
Data set [4] has the same target. The data set is described as follows: Agonist activity at human PIEZO1 overexpressing HEK293-A cells co-expressing mCherry-piezo1 assessed as fold change in calcium influx at 0.5 uM by fluo-3 based real-time flow cytometric analysis. The class given is cell-based.
Data set [5] has the same target. As to the kind of experiment: Agonist activity at human PIEZO1 overexpressing HEK293-A cells co-expressing mCherry-piezo1 assessed as fold change in calcium influx at 1 uM by fluo-3 based real-time flow cytometric analysis. Format: cell-based.
For data set [6] the target is unchanged. As to the kind of experiment: Agonist activity at human PIEZO1 overexpressing HEK293-A cells co-expressing mCherry-piezo1 assessed as fold change in calcium influx at 5 uM by fluo-3 based real-time flow cytometric analysis. Format: cell-based.
For data set [7] the target is unchanged. The data set is described as follows: Agonist activity at human PIEZO1 overexpressing HEK293-A cells co-expressing mCherry-piezo1 assessed as fold change in calcium influx at 10 uM by fluo-3 based real-time flow cytometric analysis. The class given is cell-based.
Data set [8] has the same target. The data set is described as follows: Agonist activity at human PIEZO1 overexpressing HEK293-A cells co-expressing mCherry-piezo1 assessed as induction of calcium influx by fluo-3 based real-time flow cytometric analysis. Format: cell-based.
Data set [9] has the same target. As to the kind of experiment: Agonist activity at human PIEZO1 overexpressing HEK293-A cells co-expressing mCherry-piezo1 assessed as induction of calcium influx by measuring maximum efficacy in fold change by fluo-3 based real-time flow cytometric analysis. Format: cell-based. The following applies: filed as agonist.
Data set [10] has the same target. As to the kind of experiment: Agonist activity at PIEZO1 in human CD4+ T cell assessed as fold increase in intracellular calcium influx measured for 30 mins by flow cytometry analysis. The class given is cell-based. For orientation: Calcium assays in cells follow changes in intracellular calcium, usually with a dye or a luminescent sensor.
Data set [11] is described as follows: Kinetic aqueous solubility of compound in PBS at pH 7.4 measured after 24 hrs by HPLC-UV analysis. The class given is physicochemical. To be noted: read-out: Kinetic_solubility.

Consider `Fc1ccccc1CSc1nnc(-c2cnccn2)o1`, for which the fold change (FC) in [1] and in data set [2] was less than 1.2 throughout.
Turning to `Clc1cccc(Cl)c1CSc1nnc(-c2ccc[nH]2)o1`, the fold change (FC) in data set [3], in data set [4], in data set [5], in [6], in data set [7] and in [1] was less than 1.2 each time. In addition, in data set [2], the fold change (FC) was less than 1.2.
Take `Clc1ccc(Cl)c(CSc2nnc(-c3cnccn3)o2)c1`: the fold change (FC) in data set [3] was less than 1.2; in [4] it was less than 1.2; in [5] it was less than 1.2; in data set [6] it was less than 1.2; in data set [7], greater than 1.2; in data set [1], greater than 1.2. For the same compound, the fold change (FC) in [2] was greater than 1.2; in [9], 1.25. Besides, the half-maximal effective concentration (EC50) in [8] worked out at 570 nM.
`Brc1ccc(Br)c(CSc2nnc(-c3cnccn3)o2)c1`: the fold change (FC) in [3] is less than 1.2; in data set [4], less than 1.2; in data set [5], less than 1.2; in data set [6], less than 1.2; in data set [7], greater than 1.2; in data set [1], greater than 1.2. Besides, the fold change (FC) in data set [2] is greater than 1.2; in data set [9], 1.9. Besides, in data set [8], the EC50 stood at 9900 nM.
On to `Clc1cccc(Cl)c1CSc1nnc(-c2cnccn2)o1`, for which the fold change (FC) in data set [3] is less than 1.2; in [4], less than 1.2; in data set [5], greater than 1.2; in [6], greater than 1.2; in data set [7], greater than 1.2; in [1], greater than 1.2. In addition, the fold change (FC) in [2] is greater than 1.2; in data set [9], 2.07; in [10] it was greater than 2. In addition, the EC50 in data set [8] stood at 1340 nM.
`Clc1cccc(Br)c1CSc1nnc(-c2cnccn2)o1`: the fold change (FC) in [3] was less than 1.2; in data set [4], greater than 1.2; in data set [5], greater than 1.2; in [6], greater than 1.2; in data set [7], greater than 1.2; in data set [1], less than 1.2. The fold change (FC) was greater than 1.2 in data set [2], 2.9 in [9] and greater than 2 in data set [10]. Moreover, in [8], the EC50 was 1040 nM.
In the case of `Brc1cccc(Br)c1CSc1nnc(-c2cnccn2)o1`, the fold change (FC) in data set [3] was less than 1.2; in data set [4] it was greater than 1.2; in [5], greater than 1.2; in data set [6], greater than 1.2; in [7], greater than 1.2; in [1] it was less than 1.2. For the same compound, the fold change (FC) in [2] was greater than 1.2; in data set [9], 2.5; in data set [10], greater than 2. Moreover, in [8], the EC50 came out at 2100 nM.
Consider `O=C([O-])Cc1ccccc1Nc1c(Cl)cccc1Cl.[Na+]` [DICLOFENAC SODIUM], for which, in data set [11], the solubility kinetic at 24 h worked out at 205 µM.
`FC(F)(F)c1ccc(Cl)cc1CSc1nnc(-c2cnccn2)o1`: the fold change (FC) in data set [3] is less than 1.2; in data set [4] it was greater than 1.2; in [5], greater than 1.2; in [6] it was greater than 1.2; in data set [7], greater than 1.2; in data set [1] it was greater than 1.2. The fold change (FC) in data set [2] was greater than 1.2; in data set [9], 1.7. In addition, the concentration for a half-maximal effect (EC50) in [8] came out at 550 nM.
Consider `FC(F)(F)c1ccc(Cl)c(CSc2nnc(-c3cnccn3)o2)c1`, for which the fold change (FC) is less than 1.2 in data set [3]; greater than 1.2 in [4]; greater than 1.2 in [5]; greater than 1.2 in [6]; greater than 1.2 in data set [7]; greater than 1.2 in data set [1]. Also, the fold change (FC) in [2] was greater than 1.2; in data set [9], 2.3. The EC50 in [8] amounted to 880 nM.
Regarding `Clc1ccccc1CNc1nnc(-c2cnccn2)o1`, the fold change (FC) in [3], in data set [4], in data set [5], in data set [6], in [7] and in data set [1] was less than 1.2 in each case. Besides, the fold change (FC) in data set [2] is less than 1.2.
On to `Ic1ccccc1CSc1nnc(-c2cnccn2)o1`, for which the fold change (FC) in data set [1] and in data set [2] was less than 1.2 throughout.
As to `Fc1cccc(Cl)c1CSc1nnc(-c2cnccn2)o1`, the fold change (FC) was less than 1.2 in [3]; less than 1.2 in data set [4]; less than 1.2 in data set [5]; greater than 1.2 in data set [6]; greater than 1.2 in data set [7]; less than 1.2 in data set [1]. Besides, the fold change (FC) in data set [2] was greater than 1.2; in [9], 1.55. Moreover, the EC50 in data set [8] amounted to 1090 nM.
Turning to `O=c1oc(-c2cnccn2)nn1Cc1c(Cl)cccc1Cl`, the fold change (FC) in data set [3], in [4], in [5], in data set [6], in [7] and in data set [1] was less than 1.2 throughout. In addition, in data set [2], the fold change (FC) was less than 1.2.
For `Cc1ccccc1CSc1nnc(-c2cnccn2)o1`, the fold change (FC) in data set [1] and in [2] was less than 1.2 in each case.
As for `Clc1ccc(CSc2nnc(-c3cnccn3)o2)c(Cl)c1`, the fold change (FC) in data set [3] and in data set [2] was less than 1.2 throughout.
As to `c1ccc(CSc2nnc(-c3cnccn3)o2)cc1`, the fold change (FC) in data set [1] and in data set [2] was less than 1.2 each time.
In the case of `O=c1oc(-c2cnccn2)nn1Cc1ccccc1Cl`, the fold change (FC) in data set [3], in data set [4], in data set [5], in [6], in data set [7] and in data set [1] was less than 1.2 in each case. Moreover, the fold change (FC) in data set [2] was less than 1.2.
On to `Clc1ccccc1CSc1nnc(-c2ccc[nH]2)o1`, for which the fold change (FC) in data set [3], in data set [4], in data set [5], in data set [6], in data set [7] and in [1] was less than 1.2 in each case. For the same compound, the fold change (FC) in data set [2] is less than 1.2.
Turning to `CC/C(=C(/CC)c1ccc(O)cc1)c1ccc(O)cc1` [DIETHYLSTILBESTROL], in data set [11], the solubility kinetic at 24 h was determined as 14.4 µM (≈ 3.85 µg/mL).
For `Clc1cccc(Cl)c1CSc1nnc(-c2cnccn2)s1`, the fold change (FC) was less than 1.2 in data set [3]; greater than 1.2 in [4]; greater than 1.2 in data set [5]; greater than 1.2 in [6]; greater than 1.2 in data set [7]; greater than 1.2 in [1]. Moreover, the results for the fold change (FC) in [2] and in data set [9] were greater than 1.2 and 2.4, respectively. Besides, the EC50 in data set [8] was 500 nM. In addition, in data set [11], the solubility kinetic at 24 h is 1.22 µM (≈ 0.433 µg/mL).
For the compound `N#Cc1ccccc1CSc1nnc(-c2cnccn2)o1`, the fold change (FC) in data set [1] and in data set [2] was less than 1.2 each time.
As to `Clc1cccc(Cl)c1CNc1nnc(-c2cnccn2)o1`, the fold change (FC) in data set [3], in data set [4], in data set [5], in data set [6], in data set [7] and in data set [1] was less than 1.2 in each case. Besides, the fold change (FC) in data set [2] was less than 1.2.
Turning to `FC(F)(F)c1cccc(Br)c1CSc1nnc(-c2cnccn2)o1`, the fold change (FC) in data set [3], in data set [4], in data set [5], in data set [6], in data set [7] and in data set [1] was greater than 1.2 in each case. The figures for the fold change (FC) in [2] and in data set [9] were greater than 1.2 and 2.7, respectively. Also, the concentration giving a half-maximal response (EC50) in [8] worked out at 460 nM.
For the compound `Clc1cccc(CSc2nnc(-c3cnccn3)o2)c1Cl`, the fold change (FC) in [3] and in data set [2] was less than 1.2 in each case.
`Clc1ccccc1CSc1nnc(-c2cnccn2)o1`: the fold change (FC) in [1] and in [2] was less than 1.2 throughout.
Turning to `Fc1cccc(F)c1CSc1nnc(-c2cnccn2)o1`, the fold change (FC) in [3] and in [2] was less than 1.2 each time.
Take `O=[N+]([O-])c1ccccc1CSc1nnc(-c2cnccn2)o1`: the fold change (FC) in data set [1] and in data set [2] was less than 1.2 each time.
For the compound `FC(F)(F)c1ccc(Br)c(CSc2nnc(-c3cnccn3)o2)c1`, the fold change (FC) is less than 1.2 in data set [3]; greater than 1.2 in [4]; greater than 1.2 in data set [5]; greater than 1.2 in data set [6]; greater than 1.2 in data set [7]; greater than 1.2 in [1]. The fold change (FC) in data set [2] was greater than 1.2; in data set [9], 2.3. Further, the concentration giving a half-maximal response (EC50) in data set [8] was determined as 600 nM.
In the case of `Brc1ccccc1CSc1nnc(-c2cnccn2)o1`, the fold change (FC) in [1] and in data set [2] was less than 1.2 throughout.

Values taken from ChEMBL document CHEMBL5506036, “Exploring the Structural Attributes of Yoda1 for the Development of New-Generation Piezo1 Agonist Yaddle1 as a Vaccine Adjuvant Targeting Optimal T Cell Activation” (J Med Chem, 2024).
